Experimental data reported in patent US20220213063A1, “N-[l-(5-BROMO-2-PYRIMIDIN-2-YL-1,2,4-TRIAZOL-3-YL)ETHYL]-2-CYCLOPROPYL-6-(TRIFLUOROMETHYL)PYRIDINE-4-CARBOXAMIDE DERIVATIVES AND RELATED COMPOUNDS AS INSECTICIDES” (SYNGENTA CROP PROTECTION AG, priority 2019, published 2022).

Experiments:
Assay type in all cases: in vivo
[1] = system: Diabrotica Balteata (Corn Root Worm); assay: Example B1: Diabrotica balteata (corn root worm), sprayed maize sprouts; conditions: 96 h, application rate of 200 ppm, L2 larvae, 4 days after infestation, in comparison to untreated samples, read-out: control in at least one of the two categories (mortality or growth inhibition)
Method: Example B1: Diabrotica Balteata (Corn Root Worm)
Maize sprouts placed onto an agar layer in 24-well microtiter plates were treated with aqueous test solutions prepared from 10'000 ppm DMSO stock solutions by spraying. After drying, the plates were infested with L2 larvae (6 to 10 per well). The samples were assessed for mortality and growth inhibition in comparison to untreated samples 4 days after infestation.
The following compounds gave an effect of at least 80% control in at least one of the two categories (mortality or growth inhibition) at an application rate of 200 ppm: […]

[2] = system: Chilo suppressalis (Striped Rice Stemborer); assay: Example B4: Chilo suppressalis (striped rice stemborer), artificial diet; conditions: 144 h, application rate of 200 ppm, L2 larvae, 6 days after infestation, in comparison to untreated samples, read-out: control in at least one of the three categories (mortality, anti-feedant or growth inhibition)
Method: Example B4: Chilo suppressalis (Striped Rice Stemborer)
24-well microtiter plates with artificial diet were treated with aqueous test solutions prepared from 10'000 ppm DMSO stock solutions by pipetting. After drying, the plates were infested with L2 larvae (6-8 per well). The samples were assessed for mortality, anti-feeding effect, and growth inhibition in comparison to untreated samples 6 days after infestation. Control of Chilo suppressalis by a test sample is given when at least one of the categories mortality, anti-feedant effect, and growth inhibition is higher than the untreated sample.

[3] = system: Plutella xylostella (Diamond Back Moth); assay: Example B5: Plutella xylostella (diamond back moth), artificial diet; conditions: 192 h, application rate of 200 ppm, eggs, 8 days after infestation, in comparison to untreated samples, read-out: effect in at least one of the two categories (mortality or growth inhibition)
Method: Example B5: Plutella xylostella (Diamond Back Moth)
24-well microtiter plates with artificial diet were treated with aqueous test solutions prepared from 10'000 ppm DMSO stock solutions by pipetting. After drying, Plutella eggs were pipetted through a plastic stencil onto a gel blotting paper and the plate was closed with it. The samples were assessed for mortality and growth inhibition in comparison to untreated samples 8 days after infestation.
The following compounds gave an effect of at least 80% in at least one of the two categories (mortality or growth inhibition) at an application rate of 200 ppm: […]

[4] = system: Spodoptera littoralis (Egyptian Cotton Leaf Worm); assay: Example B9: Spodoptera littoralis (Egyptian cotton leaf worm), sprayed cotton leaf discs; conditions: foliar, 72 h, application rate of 200 ppm, L1 larvae, 3 days after infestation, in comparison to untreated samples, read-out: control in at least one of the three categories (mortality, anti-feedant effect, or growth inhibition)
Method: Example B9: Spodoptera littoralis (Egyptian Cotton Leaf Worm)
Cotton leaf discs were placed onto agar in 24-well microtiter plates and sprayed with aqueous test solutions prepared from 10'000 ppm DMSO stock solutions. After drying the leaf discs were infested with five L1 larvae. The samples were assessed for mortality, anti-feeding effect, and growth inhibition in comparison to untreated samples 3 days after infestation. Control of Spodoptera littoralis by a test sample is given when at least one of the categories mortality, anti-feedant effect, and growth inhibition is higher than the untreated sample.

[5] = system: Frankliniella occidentalis (Western Flower Thrips); assay: Example B3: Frankliniella occidentalis (western flower thrips), feeding/contact activity; conditions: 168 h, application rate of 200 ppm, population of mixed ages, 7 days after infestation
Method: Example B3: Frankliniella occidentalis (Western Flower Thrips):Feeding/Contact Activity
Sunflower leaf discs were placed on agar in 24-well microtiter plates and sprayed with aqueous test solutions prepared from 10'000 DMSO stock solutions. After drying the leaf discs were infested with a Frankliniella population of mixed ages. The samples were assessed for mortality 7 days after infestation.

[6] = system: Myzus persicae (Green Peach Aphid); assay: Example B8: Myzus persicae (green peach aphid), intrinsic activity; conditions: 120 h, test rate of 12 ppm, mixed with sucrose solution, 5 days after infestation
Excerpt: Example B8: Myzus persicae (Green Peach Aphid): Intrinsic Activity
Test compounds prepared from 10'000 ppm DMSO stock solutions were applied by pipette into 24-well microtiter plates and mixed with sucrose solution. The plates were closed with a stretched Parafilm. A plastic stencil with 24 holes was placed onto the plate and infested pea seedlings were placed directly on the Parafilm. The infested plate was closed with a gel blotting paper and another plastic stencil and then turned upside down. The samples were assessed for mortality 5 days after infestation.

CC(NC(=O)c1cc(C2CC2)nc(C(F)(F)F)c1)c1nc(Br)nn1-c1ncccn1 (stereo not shown) [Compound P5, N-[1-(5-bromo-2-pyrimidin-2-yl-1,2,4-triazol-3-yl)ethyl]-2-cyclopropyl-6-(trifluoromethyl)pyridine-4-carboxamide]
≥ 80%: percent control (mortality or growth inhibition) at 200 ppm [1] | percent control (mortality, anti-feedant effect or growth inhibition) at 200 ppm [2] | percent effect (mortality or growth inhibition) at 200 ppm [3] | percent control (mortality, anti-feedant effect or growth inhibition) at 200 ppm [4]

CC(NC(=O)c1cc(C2CC2)cc(C(F)(F)F)c1)c1nc(Br)nn1-c1ncccn1 (stereo not shown) [Compound P6, N-[1-(5-bromo-2-pyrimidin-2-yl-1,2,4-triazol-3-yl)ethyl]-3-cyclopropyl-5-(trifluoromethyl)benzamide]
≥ 80%: percent control (mortality or growth inhibition) at 200 ppm [1] | percent control (mortality, anti-feedant effect or growth inhibition) at 200 ppm [2] | percent effect (mortality or growth inhibition) at 200 ppm [3] | percent control (mortality, anti-feedant effect or growth inhibition) at 200 ppm [4]

CC(NC(=O)c1cc(C2CC2C(F)(F)F)cc(C(F)(F)F)c1)c1nc(Br)nn1-c1ncccn1 (stereo not shown) [Compound P7, N-[1-(5-bromo-2-pyrimidin-2-yl-1,2,4-triazol-3-yl)ethyl]-3-(trifluoromethyl)-5-[2-(trifluoromethyl)cyclopropyl]benzamide]
≥ 80%: percent control (mortality or growth inhibition) at 200 ppm [1] | percent control (mortality, anti-feedant effect or growth inhibition) at 200 ppm [2] | percent effect (mortality or growth inhibition) at 200 ppm [3] | percent control (mortality, anti-feedant effect or growth inhibition) at 200 ppm [4]

CC(NC(=O)c1cc(C2CC2)cc(C(F)(F)F)c1)c1nc(Br)nn1-c1ccc(F)cn1 (stereo not shown) [Compound P8, N-[1-[5-bromo-2-(5-fluoro-2-pyridyl)-1,2,4-triazol-3-yl]ethyl]-3-cyclopropyl-5-(trifluoromethyl)benzamide]
≥ 80%: percent control (mortality, anti-feedant effect or growth inhibition) at 200 ppm [2] | percent effect (mortality or growth inhibition) at 200 ppm [3]

CC(NC(=O)c1cc(C(F)(F)F)nc(C2(C#N)CC2)c1)c1nc(Br)nn1-c1ncccn1 (stereo not shown) [Compound P3, N-[1-(5-bromo-2-pyrimidin-2-yl-1,2,4-triazol-3-yl)ethyl]-2-(1-cyanocyclopropyl)-6-(trifluoromethyl)pyridine-4-carboxamide]
≥ 80%: percent control (mortality or growth inhibition) at 200 ppm [1] | mortality at 200 ppm [5] | percent control (mortality, anti-feedant effect or growth inhibition) at 200 ppm [2] | percent effect (mortality or growth inhibition) at 200 ppm [3] | mortality at 12 ppm [6] | percent control (mortality, anti-feedant effect or growth inhibition) at 200 ppm [4]

CC(NC(=O)c1cc(C(F)(F)F)cc(C(F)(F)C2CC2)c1)c1nc(Br)nn1-c1ncccn1 (stereo not shown) [Compound P4, N-[1-(5-bromo-2-pyrimidin-2-yl-1,2,4-triazol-3-yl)ethyl]-3-[cyclopropyl(difluoro)methyl]-5-(trifluoromethyl)benzamide]
≥ 80%: percent control (mortality or growth inhibition) at 200 ppm [1] | percent control (mortality, anti-feedant effect or growth inhibition) at 200 ppm [2] | percent effect (mortality or growth inhibition) at 200 ppm [3] | percent control (mortality, anti-feedant effect or growth inhibition) at 200 ppm [4]

CC(NC(=O)c1cc(C(F)(F)F)nc(C2(C#N)CC2)c1)c1nc(Br)nn1-c1ccc(F)cn1 (stereo not shown) [Compound P1, N-[1-[5-bromo-2-(5-fluoro-2-pyridyl)-1,2,4-triazol-3-yl]ethyl]-2-(1-cyanocyclopropyl)-6-(trifluoromethyl)pyridine-4-carboxamide]
≥ 80%: percent control (mortality or growth inhibition) at 200 ppm [1] | percent control (mortality, anti-feedant effect or growth inhibition) at 200 ppm [2] | percent effect (mortality or growth inhibition) at 200 ppm [3] | percent control (mortality, anti-feedant effect or growth inhibition) at 200 ppm [4]
